The CheMixHub ionic liquid set

Assay: xn = mol fraction of the nth substance listed

C[N+]1(CCOCCOCC[N+]2(C)CCCC2)CCCC1.O=S(=O)([N-]S(=O)(=O)C(F)(F)F)C(F)(F)F.O=S(=O)([N-]S(=O)(=O)C(F)(F)F)C(F)(F)F + CC[n+]1ccn(C)c1.N#C[N-]C#N + O=S(=O)([N-]S(=O)(=O)C(F)(F)F)C(F)(F)F.[Li+]
electrical conductivity [S/m], 100 kPa
Conditions | 298 K | 303 K | 313 K | 323 K | 333 K | 343 K
x1 = 0.1484, x2 = 0.7091 | 0.719 | 0.844 | 1.2 | 1.49 | 1.86 | 2.18
x1 = 0.1554, x2 = 0.7427 | 0.972 | 1.17 | 1.56 | 1.97 | 2.42 | 2.85

CCCC[N+]1(C)CCCC1.FC(F)(F)C(F)(F)[P-](F)(F)(F)(C(F)(F)C(F)(F)F)C(F)(F)C(F)(F)F + FC(F)(F)c1ccccc1
101 kPa, x1 = 1
Conditions | electrical conductivity [S/m] | viscosity [mPa·s]
298.1 K | 0.113 | 283
303 K | 0.146 | 214
308.1 K | 0.186 | 166.2
313 K | 0.23 | 122.1
318.1 K | 0.273 | 100.3
323 K | 0.332 | 80.1

CC[n+]1ccn(C)c1.[Cl-] + OCCOCCOCCOCCO
viscosity [mPa·s], 101.3 kPa
Conditions | 298.15 K | 303.15 K | 313.15 K | 323.15 K | 333.15 K
x2 = 0.3333 | 360 | 266 | 168 | 115 | 83
x2 = 0.5 | 138 | 114 | 83.8 | 62.7 | 48.7

[Cl-].c1ccc(C[P+](c2ccccc2)(c2ccccc2)c2ccccc2)cc1 + OCCO
Conditions | electrical conductivity [S/m] | viscosity [mPa·s]
293.15 K, 101 kPa, x1 = 0.083 | 0.191 | 60.6
303.15 K, 101 kPa, x1 = 0.08333 | – | 68.3
313.15 K, 101 kPa, x1 = 0.083 | 0.298 | 32.2
313.15 K, 101 kPa, x1 = 0.08333 | – | 54.2
323.15 K, 100 kPa, x1 = 0.0833 | – | 38.5
323.15 K, 101 kPa, x1 = 0.08333 | – | 41.8
333.15 K, 101 kPa, x1 = 0.08333 | – | 33
338.15 K, 101.3 kPa, x2 = 0.75 | 0.02 | 86
343.15 K, 100 kPa, x1 = 0.0833 | – | 24.6
343.15 K, 101 kPa, x1 = 0.08333 | – | 24.2
353.15 K, 101 kPa, x1 = 0.08333 | – | 20.7

CCCCCCCCCCCCCC[P+](CCCCCC)(CCCCCC)CCCCCC.[c-]1c[nH]nn1 + CCCCCC[n+]1ccn(C)c1.O=S(=O)([N-]S(=O)(=O)C(F)(F)F)C(F)(F)F
viscosity [mPa·s], 100 kPa
Conditions | 278.15 K | 283.15 K | 288.15 K | 293.15 K | 298.15 K | 303.15 K | 308.15 K | 313.15 K | 318.15 K | 323.15 K
x2 = 0.135 | 2499 | 1630 | 1087 | 744 | 527 | 382 | 284 | 215 | 166 | 131
x2 = 0.3 | 2448 | 1593 | 1061 | 725 | 511 | 369 | 274 | 206 | 159 | 125
x2 = 0.348 | 2031 | 1329 | 890 | 614 | 437 | 317 | 236 | 180 | 139 | 109
x2 = 0.45 | 1597 | 1057 | 717 | 498 | 358 | 262 | 197 | 151 | 118 | 94
x2 = 0.58 | 1211 | 820 | 567 | 402 | 294 | 219 | 168 | 131 | 104 | 84
x2 = 0.698 | 755 | 522 | 369 | 268 | 200 | 152 | 119 | 94 | 76 | 62
x2 = 0.849 | 417 | 295 | 214 | 159 | 122 | 96 | 77 | 62 | 51 | –

CCCC[n+]1ccn(C)c1.[Br-] + C[C@@H](O)[C@H](N)C(=O)O + O
viscosity [mPa·s], 101.3 kPa
Conditions | 293.15 K | 298.15 K | 303.15 K | 308.15 K | 313.15 K
x2 = 0, x1 = 0.0007203 | – | – | – | – | 0.674
x2 = 0.0003632, x1 = 0.00072 | 1.028 | 0.918 | 0.825 | 0.748 | 0.682
x2 = 0.0003679, x1 = 0.001439 | 1.053 | 0.943 | 0.85 | 0.773 | 0.707
x2 = 0.0007261, x1 = 0.0007198 | 1.034 | 0.923 | 0.829 | 0.751 | 0.685
x2 = 0.0007318, x1 = 0.001438 | 1.059 | 0.948 | 0.854 | 0.776 | 0.71
x2 = 0.001087, x1 = 0.0007195 | 1.038 | 0.927 | 0.834 | 0.755 | 0.689
x2 = 0.001097, x1 = 0.001438 | 1.064 | 0.952 | 0.859 | 0.78 | 0.714
x2 = 0.001451, x1 = 0.0007192 | 1.043 | 0.932 | 0.838 | 0.76 | 0.693
x2 = 0.001461, x1 = 0.001437 | 1.07 | 0.957 | 0.863 | 0.785 | 0.718
x2 = 0.001813, x1 = 0.000719 | 1.048 | 0.936 | 0.843 | 0.764 | 0.698
x2 = 0.001828, x1 = 0.001437 | 1.075 | 0.961 | 0.868 | 0.789 | 0.723
x2 = 0.002175, x1 = 0.0007187 | 1.053 | 0.941 | 0.847 | 0.769 | 0.702
x2 = 0.002191, x1 = 0.001436 | 1.079 | 0.966 | 0.872 | 0.794 | 0.727
x2 = 0.002537, x1 = 0.0007185 | 1.058 | 0.946 | 0.852 | 0.773 | 0.707
x2 = 0.002557, x1 = 0.001436 | 1.085 | 0.97 | 0.877 | 0.798 | 0.732
